The values that follow come from PMC7838189, “Natural podophyllotoxin analog 4DPG attenuates EMT and colorectal cancer progression via activation of checkpoint kinase 2” (Cell Death Discovery, 2021).

The test system of data set [1] is RBCs. As to the kind of experiment: In vitro hemolysis assay. The data set is classed as cell-based. The conditions noted are these: 20 µg/mL (highest tested concentration), 1 h incubation. As to the method: Solubility and distribution coefficient are among the major physicochemical properties of a drug that greatly determine its absorption in physiological compartments. […] The distribution coefficient (logD, pH 7.4) of 4DPG was determined to be 0.815 ± 0.19, which indicates the slightly lipophilic nature of the molecule. For administration to animals, the appropriate quantity of 4DPG was formulated in the pre-calculated volume of saline with the help of a solubilizer (Tween-80). Next, to assess the hemocompatibility of 4DPG and establish if the compound could be considered safe for intravenous (i.v.) administration, we performed in vitro hemolysis assay by incubating the RBCs with increasing concentrations of the molecule.
The distribution coefficient, solubility, and hemocompatibility of 4DPG was determined adopting our previously described protocol[37],[40]. For hemolysis assay, increasing concentrations (5, 10, and 20 µg/mL) of 4DPG were employed. Distilled water (DW) and PBS were considered as […].
Supplementary Figure S4. Hemocompatibility and exposure of 4DPG. (A) Representative images of RBC suspension incubated with distilled water (negative control), PBS (positive control), and increasing concentrations of 4DPG for 1 h. (B) Quantification of hemolysis in above treatment conditions by measuring the optical density at 540 nm. […]

The test system of data set [2] is orthotopic rat colorectal carcinoma. The conditions noted are these: 25 mg/kg thrice a week for 3 weeks. The text has this:
To examine the antitumor and anti-metastatic efficacy of 4DPG in vivo, we employed a carcinogen-induced orthotopic rat colorectal carcinoma model. […] The schematic representation briefly describes the steps involved in the generation of orthotopic colorectal tumors along with the treatment strategy and further analysis (details in “Materials and methods”). The animals were euthanized at the end of the experiment and evaluated for tumor and metastatic burden (Fig. 4A). […] To validate whether our in vitro observations on mechanistic inhibition of EMT and invasion by 4DPG hold true in vivo, we performed immunohistochemical analysis of the tumor tissues acquired from the saline and 4DPG-treated animal groups.
A Model depicting the procedure adopted for generating the carcinogen-induced orthotopic rat CRC model, treatment strategies of 4DPG, evaluation of tumor burden, and further biochemical analysis. B Representative images of large bowel showing the colorectal tumor growth in saline, 5-FU (25 mg/kg), and 4DPG (25 mg/kg) treated groups of animals. C, D Quantification of tumor volume and number of polyps per rat in above groups of animals. n = 6 rats per group, error bars: mean ± SD; *P < 0.05, **P < 0.01, ***P < 0.001. E Representative images of the lungs dissected from the above groups of animals showing metastatic tumor burden. Orange arrows indicating bumps of secondary tumors over each lobe of lungs. F, G Quantification of a number of macroscopic secondary tumors over the lung tissues and lung weight in the above groups of animals. n = 6 rats per group, error bars, mean ± SD; **P < 0.01, ***P < 0.001. […] Scale bar: 50 µm. I Western blots depicting expression of p-Chk2 (Thr68), Chk2, p53, p-Vimentin (Ser38), and Vimentin in tumor tissues obtained from saline- and 4DPG-treated groups of animals. β-Actin expression was taken as endogenous loading control. J Densitometry analysis of the above western blot bands portraying relative protein expression of the markers presented. n = 3, error bars: mean ± SD; **P < 0.01, ***P < 0.001.
Animal studies were performed following the guidelines approved by Institutional Animal Ethics Committee (IAEC No. 51/02/15) of CSIR-Indian Institute of Integrative Medicine, Jammu, India. The experiment was performed according to our standardized protocol described previously with necessary modifications. Five-weeks-old healthy male Wistar rats (body weight 150–200 g) were maintained in aseptic condition with free access to food and water. Animals were randomized into three groups, with six animals per group. All the rats received intrarectal instillation of 0.5 mL of freshly prepared 0.4% aqueous solution of N-methyl-N-nitrosourea (MNU) thrice a week for 3 weeks, for the orthotopic induction of colorectal tumors. The solution was injected using sterile syringe with attached 8-cm long rubber catheter tube inserted two-thirds into the colon lumen through anal orifice, as described previously. The animals were kept under continuous monitoring, and the body weight was measured once per week. Following 22 weeks after the initiation of MNU administration, treatment regimens were started by administering 5-FU (25 mg/kg), and 4DPG (25 mg/kg) thrice a week for 3 weeks. The control and treatment groups of animals were dosed separately by three independent investigators and the outcomes were assessed by a fourth investigator blind about the dosing process and treatment regimen.

The molecule `COc1cc([C@@H]2c3cc4c(cc3C[C@H]3COC(=O)[C@@H]32)OCO4)cc(OC)c1O[C@@H]1O[C@H](CO)[C@@H](O)[C@H](O)[C@H]1O` [4DPG, 4′-demethyl-deoxypodophyllotoxin glucoside] showed a hemolysis in data set [1] of 5.8%. Also, the lung metastases result in data set [2] was “strongly prevented the development of lung metastases”. Moreover, the drug-related toxicity/adverse effects result in data set [2] (until end of experiment) is “without any drug-related toxicity/adverse effects”. Also, the “average number of polyps” value in data set [2] (control group 16) amounted to 3. In data set [2] (saline control 820.6 mm^3), this molecule yielded a mean tumor volume of 116.8 mm^3.
